Test results as given in patent publication US8993637B2 (priority 2013, dated 2015).

Assays:
[1] = system: mouse FSGS model (adriamycin-induced, BALB/c mice); assay: Mouse FSGS model: urine protein and renal function (serum BUN, Cr); type: in vivo; settings: Citral 200 mg/kg daily by gavage
Method: (§1) A progressive type of mouse FSGS model was used, particularly characterized by EPHLs, a key histopathology index of progression of FSGS, peri-glomerular inflammation, and progressive glomerular hyalinosis/sclerosis. The FSGS model was induced in 8-week-old male BALB/c mice (National Laboratory Animal Center, Taipei, Taiwan) by intravenous injection of a single dose of adriamycin (0.10 mg/10 g body weight) (Pfizer, New York, N.Y.) as described previously. […] Age- and sex-matched BALB/c mice were used as normal controls. Urine samples were collected in metabolic cages on days 3, 7, 14, 21, and 28. Renal cortical tissues and blood samples were collected when the mice were sacrificed and stored appropriately for further analysis. The concentration of urine protein was determined using BCA kits (Pierce, Rockford, Ill.) as described previously and normalized to urine creatinine (Cr) levels measured using kits (Wako Pure Chemical Industries, Osaka, Japan), as described previously. Serum levels of blood urea nitrogen (BUN) and Cr were determined using BUN kits and Cr kits (both from Fuji Dry-Chem Slide, Fuji Film Medical, Tokyo, Japan), as described previously. Urine and blood samples were collected from the mice at different time points, which were analyzed for proteinuria and blood urea nitrogen (BUN) and creatinine (Cr) levels by using a urease assay and a picric acid method respectively (Nephron 1998; 78: 440-452).

[2] = system: renal apoptosis; caspase-3, caspase-8, caspase-9, Bax/Bcl-2; assay: Mouse FSGS model: renal apoptosis (TUNEL), caspases, Bax/Bcl-2 ratio; type: in vivo
Method: as §1, with “previously.” for “previously. Urine and blood samples were collected from the mice at different time points, which were analyzed for proteinuria and blood urea nitrogen (BUN) and creatinine (Cr) levels by using a urease assay and a picric acid method respectively (Nephron 1998; 78: 440-452).”
Renal tissues were formalin-fixed, embedded in paraffin, and sections (4 μm) prepared and stained with hematoxylin and eosin (H&E) for renal histopathology as described previously or TUNEL stained for apoptosis as described previously. Renal pathology was examined and renal lesions scored as described previously. For EPHLs and sclerosis, at least 50 glomeruli in sections were examined for each mouse. To detect apoptosis in renal tissues, TUNEL staining was performed using an in situ apoptosis detection kit (Chemicon, Temecula, Calif.) according to the manufacturer's instructions. For immunohistochemistry, methyl Carnoy solution-fixed and paraffin-embedded renal sections were prepared and incubated with goat antibodies against mouse collagen IV (Col-IV) (Southern Biotech, AL) or rabbit antibodies against phosphorylated mouse NF-κB p65 (Cell Signaling Technology, MA), F4/80 (Serotec, Raleigh, N.C.), or CD3 (Serotec), then with horseradish-conjugated rabbit anti-goat IgG antibodies or swine anti-rabbit IgG antibodies (both from Dako, Carpinteria, Calif.). Quantitative image analysis software (Pax-it; Paxcam, VIIIa Park, Ill.) was used to score Col-IV staining and the number of phosphorylated NF-κB p65-, CD3-, F4/80-, or TUNEL-positive cells as described previously.
Cytoplasmic and nuclear proteins from renal tissues were prepared using a kit (Active Motif, Tokyo, Japan) according to the manufacturer's instructions and target proteins detected by immunoblotting using goat antibodies against mouse Nrf2 or p47^phox, (Santa Cruz Biotechnology, Santa Cruz, Calif.) or rabbit antibodies against mouse NQO1 (Abcam), caspase-3, caspase-8, or caspase-9 (all from Cell Signaling Technology, MA) or Bcl2 or Bax (both from Santa Cruz Biotechnology), then with horseradish-conjugated rabbit anti-goat IgG antibodies or goat-anti-rabbit IgG antibodies (both from Santa Cruz Biotechnology) as described previously. Anti-β-actin antibody (Santa Cruz Biotechnology) was used as internal controls for the nuclear and cytosolic target proteins, respectively. Renal HO-1 levels were measured using a commercial ELISA kit (R&D Systems, Minneapolis, Minn.) according to the manufacturer's instructions.

NF-κB in RAW-Blue cells = assay: NF-κB reporter assay (secreted embryonic alkaline phosphatase, QUANTI-Blue); type: cell-based, murine; settings: 30 min preincubation, then 24 h LPS 1 μg/ml
Method: (§2) ROS production was measured as the relative fluorescence intensity. […] The data are expressed as the mean±SD for three separate experiments. *p<0.05, **p<0.01 compared to the LPS-treated group. RAW-Blue™ cells (Murine macrophages RAW264.7 stably transfected with the NF-κB reporter gene) purchased from InvivoGen (San Diego, Calif.). LPS (from Escherichia coli 0111:B4) and mouse antibodies against phospho-ERK1/2, phospho-JNK1/2, and phospho-p38 (all from Sigma, St. Louis, Mo.). Rabbit antibodies against mouse ERK1, JNK1, and p38, and HRP-labeled second antibodies were purchased from Santa Cruz Biotechnology, and IL-1β, IL-6, and TNF-α ELISA kits from R&D Systems. ROS production assay, NO production assay, NF-κB reporter assay, ELISA, and Western blotting were performed as described previously.

RAW 264.7 macrophages = assay: Pro-inflammatory cytokine ELISA in LPS-activated macrophages; type: cell-based, murine; settings: LPS 1 μg/ml 24 h, culture medium
Method: as §2

[3] = system: ERK1/2, JNK1/2, p38 in RAW 264.7 macrophages; assay: MAPK phosphorylation (Western blotting) in LPS-activated macrophages; type: cell-based, murine; settings: Citral 10 μg/ml; LPS 1 μg/ml 0-60 min; p<0.05
Description: RAW-Blue™ cells (Murine macrophages RAW264.7 stably transfected with the NF-κB reporter gene) purchased from InvivoGen (San Diego, Calif.). LPS (from Escherichia coli 0111:B4) and mouse antibodies against phospho-ERK1/2, phospho-JNK1/2, and phospho-p38 (all from Sigma, St. Louis, Mo.). Rabbit antibodies against mouse ERK1, JNK1, and p38, and HRP-labeled second antibodies were purchased from Santa Cruz Biotechnology, and IL-1β, IL-6, and TNF-α ELISA kits from R&D Systems. ROS production assay, NO production assay, NF-κB reporter assay, ELISA, and Western blotting were performed as described previously.

CC(C)=CCCC(C)=CC=O (racemic) [Citral, 3,7-dimethyl-2,6-octadienal]
proteinuria (urine protein) ([1]; day 14, FSGS+Citral vs FSGS+vehicle mice): slightly inhibited | proteinuria (urine protein) ([1]; day 21, vs FSGS+vehicle mice, p<0.005): markedly inhibited | proteinuria (urine protein) ([1]; day 28, vs FSGS+vehicle mice, p<0.01): markedly inhibited | serum levels of BUN ([1]; days 14 and 28, p<0.05): almost, or completely, suppressed | serum levels of Cr ([1]; days 14 and 28, p<0.05): almost, or completely, suppressed | mature form (p18 fragment) of renal caspase-8 ([2]; FSGS+vehicle vs FSGS+Citral vs normal control mice, data not shown): no detectable difference | renal apoptosis (TUNEL) in the glomerulus ([2]; day 28, p<0.005): significantly inhibited | renal apoptosis (TUNEL) in the renal tubule ([2]; days 14 and 28): significantly inhibited | mature form (p17 fragment) of caspase-3, renal levels ([2]; days 14 and 28, p<0.01): significantly inhibited | mature form (p37 fragment) of caspase-9, renal levels ([2]; days 14 and 28, p<0.05): suppressed | NF-κB transcriptional activity in LPS-stimulated macrophages (NF-κB in RAW-Blue cells): reduced | secretion level of IL-1β (RAW 264.7 macrophages): inhibited | secretion level of IL-6 (RAW 264.7 macrophages): inhibited | secretion level of TNF-α (RAW 264.7 macrophages): inhibited | LPS-induced phosphorylation of ERK1/2 [3]: significantly inhibited | LPS-induced phosphorylation of JNK1/2 [3]: significantly inhibited
